Measured values from PMC10583261 (CPT: Pharmacometrics & Systems Pharmacology, 2023).
Values after ≈ are worked out from the molar mass of the structure shown. Values joined by “and” are separate entries in the source; they are usually repeats but may differ in a detail not shown here. Equal values may be shown once. Read-outs that look alike come from different tables or passages of the source.

Columns and labels:
[1] = ref data on file, cited from earlier work
[2] = weak-base compound; ref data on file; cited from earlier work
[3] = assay type: in vivo, human
[4] = final population PK model, healthy subjects

Question: What does the source list for `N#Cc1ccc(N2CCN(Cc3ccc(COc4cccc5c4CN([C@H]4CCC(=O)NC4=O)C5=O)cc3)CC2)c(F)c1` [mezigdomide]?
Answer: Solubility ([1]; pH 1): 133 µg/mL (≈ 234 µM); Solubility ([1]; pH 5): 1 µg/mL (≈ 1.76 µM); decrease of solubility from pH 1 to pH 5 [1]: ~ 100 fold; dissociation constant [2]: 6; decrease in ka with high-fat meal ([3]; fed vs fasted, model-estimated): ~ 30%; increase in Tlag with high-fat meal ([3]; fed vs fasted, model-estimated): ~ 0.85 h; increase of relative oral bioavailability F with high-fat meal ([3]; fed vs fasted, model-estimated): ~ 30%; interindividual variability (IIV) of central volume of distribution V1 ([3]; final population PK model): 63% and 63.4%; interindividual variability (IIV) of clearance ([3]; final population PK model): 40% and 39.9% and ~ 40%; interindividual variability (IIV) of intercompartmental clearance ([3]; final population PK model): 26%; interindividual variability (IIV) of peripheral volume of distribution ([3]; final population PK model): 26%; interoccasion variability (IOV) of absorption rate constant ka ([3]; final population PK model): 65%; V1pop, distribution volume of the central compartment [3, 4]: 440 L; V2pop, distribution volume of the peripheral compartment [3, 4]: 243 L; dose-exposure relationship ([3]; healthy subjects, 0.4–3.2 mg): linear; absorption rate constant ([3]; population PK parameter, healthy subjects (abstract)): 1.18 h⁻¹; decrease in relative oral bioavailability F with PPI co-administration ([3]; rabeprazole vs no PPI, model-estimated): ~ 64%
